This note sets out measurements from US20100022491A1, “4-HYDROXY-2-OXO-2,3-DIHYDRO-1,3-BENZOTHIAZOL-7YL COMPOUNDS FOR MODULATION OF B2-ADRENORECEPTOR ACTIVITY” (ASTRAZENECA AB, priority 2006, published 2010).

Test [1] concerns the target T1, recombinant human adrenergic beta 1 receptors (Homo sapiens, UniProt P08588).
T1 construct: purchased Euroscreen
Briefly: Adrenergic β1 selectivity binding assay ([125I]-Iodocyanopindolol). The conditions noted are these: inhibition of [125I]-Iodocyanopindolol (0.036 nM) binding; read-out: β1 bind p IC50 (converted). Put shortly:
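Recombinant human β1 membranes in HEPES buffer pH 7.4 with 120 mM NaCl were incubated 2 hours at room temperature with 0.036 nM [^125I]-Iodocyanopindolol. Nonspecific binding defined by 10 μM propranolol; bound radioactivity counted after filtration. pIC50 from four-parameter logistic fit.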

Test [2] addresses T2, recombinant human α1D receptor (Homo sapiens, UniProt P25100).
T2 construct: expressed in transfected cells; host or cells: HEK293
T2 sequence (P25100 1-572): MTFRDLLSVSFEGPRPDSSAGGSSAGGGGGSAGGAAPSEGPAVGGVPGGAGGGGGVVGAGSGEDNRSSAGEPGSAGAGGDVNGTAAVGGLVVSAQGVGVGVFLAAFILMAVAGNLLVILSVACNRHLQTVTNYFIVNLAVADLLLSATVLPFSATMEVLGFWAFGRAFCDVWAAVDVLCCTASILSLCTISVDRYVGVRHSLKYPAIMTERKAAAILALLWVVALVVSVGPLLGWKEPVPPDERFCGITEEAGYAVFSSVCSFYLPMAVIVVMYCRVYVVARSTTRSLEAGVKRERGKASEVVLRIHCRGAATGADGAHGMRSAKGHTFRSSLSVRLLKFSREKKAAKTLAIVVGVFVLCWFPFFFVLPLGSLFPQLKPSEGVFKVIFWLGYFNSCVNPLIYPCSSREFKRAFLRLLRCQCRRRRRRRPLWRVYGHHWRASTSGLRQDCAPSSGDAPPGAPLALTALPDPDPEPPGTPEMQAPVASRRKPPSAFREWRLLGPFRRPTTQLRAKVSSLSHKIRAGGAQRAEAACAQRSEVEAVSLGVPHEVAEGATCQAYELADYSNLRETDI
Nature of the test: Adrenergic α1D selectivity binding assay ([3H]-prazosin). The settings on record: inhibition of [3H]-prazosin (0.3 nM) binding, HEK293 membranes; read-out: α1 bind pIC50 (converted). The method in brief: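 HEK293 membranes with recombinant human α1D receptor incubated 2 h at room temperature with 0.3 nM [3H]-prazosin and compound in 50 mM HEPES, 1 mM EDTA, 0.1% gelatin, pH 7.4; BMY7378 (10 μM) defined non-specific binding. Filter-bound radioactivity counted; pIC50 from four-parameter logistic fit.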

Where a name gives a salt, the structure may show the parent alone.

T1 sequence (P08588 whole entry): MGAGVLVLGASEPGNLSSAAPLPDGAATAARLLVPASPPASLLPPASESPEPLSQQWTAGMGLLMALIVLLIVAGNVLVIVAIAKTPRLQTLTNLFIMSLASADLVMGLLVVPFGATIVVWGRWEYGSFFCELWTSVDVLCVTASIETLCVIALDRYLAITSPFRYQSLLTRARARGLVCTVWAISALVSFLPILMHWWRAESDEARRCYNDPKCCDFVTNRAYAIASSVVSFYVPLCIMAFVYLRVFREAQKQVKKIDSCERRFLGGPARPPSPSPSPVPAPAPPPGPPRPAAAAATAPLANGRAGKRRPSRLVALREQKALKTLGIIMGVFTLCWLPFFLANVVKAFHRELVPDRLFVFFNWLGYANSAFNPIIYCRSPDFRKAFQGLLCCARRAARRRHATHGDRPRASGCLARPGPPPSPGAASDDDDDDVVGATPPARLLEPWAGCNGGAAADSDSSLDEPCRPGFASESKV

Consider `O=C(CCNCCc1ccccc1)N(CCNCCc1ccc(O)c2[nH]c(=O)sc12)C1CCC(F)(F)CC1` [Example 4, N-(4,4-Difluorocyclohexyl)-N-(2-{[2-(4-hydroxy-2-oxo-2,3-dihydro-1,3-benzothiazol-7-yl)ethyl]amino}ethyl)-N^3-(2-phenylethyl)-β-alaninamide bis-trifluoroacetic acid salt], for which the figures for the IC50 in test [1] and in test [2] were 2510 nM and 200 nM, respectively.
In the same order, the values of `O=C(CCNCCc1ccccc1)N(CCNCCc1ccc(O)c2[nH]c(=O)sc12)C1CCCCC1` [Example 5, N-Cyclohexyl-N-(2-{[2-(4-hydroxy-2-oxo-2,3-dihydro-1,3-benzothiazol-7-yl)ethyl]amino}ethyl)-N^3-(2-phenylethyl)-β-alaninamide bis-trifluoroacetic acid salt] are 5010 nM and 100 nM.
Turning to `Cc1cccc(CCNCCC(=O)N(CCNCCc2ccc(O)c3[nH]c(=O)sc23)C2CCCCCC2)c1` [Example 85, N^1-Cycloheptyl-N^1-(2-{[2-(4-hydroxy-2-oxo-2,3-dihydro-1,3-benzothiazol-7-yl)ethyl]amino}ethyl)-N^3-[2-(3-methylphenyl)ethyl]-β-alaninamide bis-trifluoroacetic acid salt], the IC50 in test [1] is 2510 nM; in test [2] it was 50.1 nM.
For the compound `COc1ccc(CCNCCC(=O)N(CCNCCc2ccc(O)c3[nH]c(=O)sc23)C2CCCCCC2)cc1OC` [Example 86, N^1-Cycloheptyl-N^3-[2-(3,4-dimethoxyphenyl)ethyl]-N^1-(2-{[2-(4-hydroxy-2-oxo-2,3-dihydro-1,3-benzothiazol-7-yl)ethyl]amino}ethyl)-β-alaninamide bis-trifluoroacetic acid salt], the IC50 in test [1] was 2510 nM; in test [2], 251 nM.
As for `O=C(CCNCCc1ccc(O)c2[nH]c(=O)sc12)N(CCNCCc1ccc(O)c2[nH]c(=O)sc12)C1CCCCCC1` [Example 87, bis-trifluoroacetic acid salt], the IC50 is 794 nM in test [1] and 251 nM in test [2].
`O=C(CCNCCc1ccc2c(c1)OCCO2)N(CCNCCc1ccc(O)c2[nH]c(=O)sc12)C1CCCCCC1` [Example 88, N-Cycloheptyl-N^3-[2-(2,3-dihydro-1,4-benzodioxin-6-yl)ethyl]-N^1-(2-{[2-(4-hydroxy-2-oxo-2,3-dihydro-1,3-benzothiazol-7-yl)ethyl]amino}ethyl)-β-alaninamide bis-trifluoroacetic acid salt]: the IC50 in test [1] is 6310 nM; in test [2] it was 251 nM.
As to `O=C(CCNCCc1ccc(O)c(Cl)c1)N(CCNCCc1ccc(O)c2[nH]c(=O)sc12)C1CCCCC1` [Example 89, N^3-[2-(3-chloro-4-hydroxyphenyl)ethyl]-N^1-cyclohexyl-N^1-(2-{[2-(4-hydroxy-2-oxo-2,3-dihydro-1,3-benzothiazol-7-yl)ethyl]amino}ethyl)-β-alaninamide bis-trifluoroacetic acid salt], the IC50 in test [1] was 3160 nM; in test [2], 50.1 nM.
For `O=C(CCNCCc1cccc(O)c1)N(CCNCCc1ccc(O)c2[nH]c(=O)sc12)C1CCCCCCC1` [Example 90, N^1-Cyclooctyl-N^1-(2-{[2-(4-hydroxy-2-oxo-2,3-dihydro-1,3-benzothiazol-7-yl)ethyl]amino}ethyl)-N^3-[2-(3-hydroxyphenyl)ethyl]-β-alaninamide bis-trifluoroacetic acid salt], the IC50 was 200 nM in test [1] and 63.1 nM in test [2].
Regarding `CC1(C)CCC(N(CCNCCc2ccc(O)c3[nH]c(=O)sc23)C(=O)CCNCCc2cccc(O)c2)CC1` [Example 91, N^1-(4,4-Dimethylcyclohexyl)-N^1-(2-{[2-(4-hydroxy-2-oxo-2,3-dihydro-1,3-benzothiazol-7-yl)ethyl]amino}ethyl)-N^3-[2-(3-hydroxyphenyl)ethyl]-β-alaninamide bis-trifluoroacetic acid salt], the IC50 in test [1] was 3980 nM; in test [2], 126 nM.
